Like-named read-outs stand apart in the source and are kept apart here.
How the values were obtained:
[1] = type: physicochemical; settings: for Concentration by fluorescence (chromophore recovery): 10 ng on column
Method: Treatment of the drugs with calcium hypochlorite was carried out as described in Example 1. One ml aliquots of doxorubicin, daunorubicin and mitoxantrone, separately, were taken from the petri dishes after calcium hypochlorite exposure at two different concentrations for a period of one minute. Ten (10) ng of each of the anticancer drug (based on the final concentration resulting from the addition of calcium hypochlorite to the separate petri dishes containing each anticancer agent) was added to a high performance liquid chromatography column and standard HPLC assays were carried out. A reverse phase C-18 bonded phase HPLC procedure was used. The mobile phase consisted of 30:70 CH3 CN:ammonium acetate at a flow rate of 2 ml/min., using a Varian model 5020 HPLC unit. The anticancer drugs were detected using excitation at 480 nm and emission at 550 nm with a Schoeffel model FS 970 fluoroescence detector.

[2] = tested on: Salmonella Typhimurium TA 98 strain; assay: Mutagenic activity (revertant colonies) of DNA intercalators treated with calcium hypochlorite; type: cell-based; settings: for No. colonies of revertant organisms: drug 10 ng/ml
Method: Solutions of DNA intercalators (doxorubicin, daunorubicin and mitoxantrone)in concentrations of 10 ng/ml D5W were applied in 5 ml quantities to separate petri dishes. Two different concentrations of calcium hypochlorite, 40 g/l and 423 g/l, were applied in 1 ml. volumes separately to the anticancer drug solutions in each petri dish for a period of one minute. After thorough mixing and neutralization of the pH to 7.4 using HCl, 1 ml of each petri dish solution was applied to 35 mm petri dishes containing cultures of Salmonella Typhimurium TA 98 strain. The petri dishes containing bacteria plus overlaid mixtures of calcium hypochlorite/anticancer drug and control plates with bacteria alone were then incubated at 37° C. for 24 hours.

[3] = Deactivation and decolorization of anticancer drugs by hypochlorite; settings: calcium or sodium hypochlorite
Description: In accordance with the invention, HIV infected blood, or any of a number of active anticancer drugs, can be inactivated by applying thereto an aqueous solution containing 4-40% by weight of calcium or sodium hypochlorite. HIV infected blood, as well as any anticancer agent which can undergo oxidative or alkaline degradation can be deactivated in accordance with the method of the invention. Among the anticancer agents which can be effectively deactivated are the following:
In addition to chemically deactivating the anti-cancer drugs, the method of the invention is also effective to decolorize those, e.g., the anthracyclines, doxorubicin and daunorubicin, which are naturally red in color, and the alkylating agent mitomycin C, which is naturally purple in color, which stain fabrics which they contact. The method of the invention renders the naturally colored anticancer drugs colorless, thus preventing permanent damage to clothes or other materials which come in contact with the drugs.
It has also been determined that HIV infected blood and most anticancer drugs can be deactivated by application of a solution of calcium or sodium hypochlorite in water at a concentration of 4% by weight.

[4] = tested on: HIV-infected CD4+ human cell line (H9/IIIB); assay: HIV inactivation by dilute calcium hypochlorite; type: cell-based, HIV; human cells
Method: The ability of dilute calcium hypochlorite to inactivate HIV was tested against an HIV-infected CD4+ human cell line (H9/IIIB).
H9/IIIB cells (10^6 cells/ml of complete culture medium, RPMI in 10% fetal calf serum [FCS]) were exposed to an aqueous solution containing 4% by weight of calcium hypochlorite for 15 minutes; the volumetric ratio of culture medium to calcium hypochlorite solution was 1:1, or a 50% dilution of a 4% dilute calcium hypochlorite solution in culture medium containing 10% serum. The cells were subsequently washed three times with 10% FCS RPMI and plated in fresh medium and allowed to incubate at 37° C. for three days, to allow any residual live virus and/or virus-infected cells to develop after the brief exposure to the dilute calcium hypochlorite solution. The cells were again pelleted and exposed to lytic CD4+ human cell line (MOT) as a target for any viable virus. The target MOT cells will lyse when infected with HIV. These cells were then allowed to incubate an additional four days. Next, the cells were incubated with human anti-HIV antibody (prepared in accordance the procedures described in Lake DA, Sugano T, Matsumoto Y, et al: "A Hybridoma Producing Monoclonal Antibody Specific for Glycoprotein 120 kDa of Human Immunodeficiency Virus (HIV-1), Life Sciences 45:iii-x, 1989.) for one hour, and then washed and incubated with fluorescent labeled goat anti-human IgG for one hour. The method for HIV detection by formaldehyde fixation and flow cytometry was in accordance with the method described in Lifson JD, Sasaki DT, Engleman EG: "Utility of Formaldehyde Fixation for Flow Cytometry and Inactivation of the AIDS Associated Retrovirus", J Immunological Methods 86:143-149, 1986.
As a positive control, the above procedure was followed with HIV-infected H9/IIIB cells exposed only to culture medium rather than to culture medium and calcium hypochlorite. As a negative control, the above procedure was followed with uninfected H9 cells exposed to an aqueous solution containing 4% by weight of calcium hypochlorite.

[5] = tested on: HIV infected cells (H9/IIIB); assay: Towlette swabs for work surfaces contaminated by HIV infected cells; parameters: species or system HIV; human cells; settings: 5% impregnated towlette; stainless steel surface
Description: Test Swabs: 17×23 cm nylon-reinforced 4 ply, #34770, each weighing approximately 2.6 gram Terri® Wipers, manufactured by Kimberly Clark, Neenah, Wis.
Bleach: 4% by weight aqueous solution of calcium hypochlorite.
Sodium thiosulfate: 5% by weight aqueous solution, supplied by Tarijian Labs, Inc., Queens Village, N.Y.
HIV infected Cells: H9/IIIB cells (10^6 cells/ml of complete culture medium, RPI in 10% fetal calf serum [FCS]), as described above in Example 6.
A first fresh, dry test swab or towlette is impregnated with a 4.0% by weight aqueous solution of calcium hypochlorite by applying 5 (five) ml. of the calcium hypochlorite solution to the test swab. A second fresh, dry test swab or towlette is impregnated with a 5% by weight aqueous solution of sodium thiosulfate by applying 5 (five) ml. of the sodium thiosulfate solution to the test swab.
A small amount of the HIV infected cells are placed on a stainless steel work surface.
The sodium thiosulfate impregnated towlette is then wiped, or swabbed, over the work surface containing the inactivated virus.

[6] = Towlette swabs for work surfaces contaminated by doxorubicin; settings: 5% impregnated towlette; stainless steel surface
Description: The Experimental Materials used are as described above in Example 8. A first fresh, dry test swab or towlette is impregnated with a 5.25% by weight aqueous solution of sodium hypochlorite by applying 5 (five) ml. of the sodium hypochlorite solution to the test swab. A second fresh, dry test swab or towlette is impregnated with a 5% by weight aqueous solution of sodium thiosulfate by applying 5 (five) ml. of the sodium thiosulfate solution to the test swab.
Doxorubicin is placed on a stainless steel work surface, which should cause a red stain to appear.
The sodium thiosulfate impregnated towlette is then wiped, or swabbed, over the work surface containing the chemically inactivated doxorubicin spill.

[7] = calcium hypochlorite 0 (control)
[8] = lower concentration of calcium hypochlorite (40 g/l), one minute
[9] = calcium hypochlorite 40 g/l, one minute
[10] = calcium hypochlorite 423 g/l, one minute
[11] = no calcium hypochlorite, 37° C., 24 hours

Compound	Concentration by fluorescence (chromophore recovery) [1, 7] [ng]	Concentration by fluorescence (chromophore recovery) ([1]; calcium hypochlorite 40 g/l) [ng]	Concentration by fluorescence (chromophore recovery) ([1]; calcium hypochlorite 423 g/l) [ng]	chemical evidence of drug [1, 8]	No. colonies of revertant organisms [2, 9] [colonies]	No. colonies of revertant organisms [2, 10] [colonies]	No. colonies of revertant organisms [2, 11] [colonies]	other results
COc1cccc2c1C(=O)c1c(O)c3c(c(O)c1C2=O)C[C@@](O)(C(C)=O)C[C@@H]3O[C@H]1C[C@H](N)[C@H](O)[C@H](C)O1 [Daunorubicin]	9.8	0	0	no chemical evidence	0	0	365	
COc1cccc2c1C(=O)c1c(O)c3c(c(O)c1C2=O)C[C@@](O)(C(=O)CO)C[C@@H]3O[C@H]1C[C@H](N)[C@H](O)[C@H](C)O1 [Doxorubicin]	9.7	0	0	no chemical evidence	0	0	257	
O=C1c2c(O)ccc(O)c2C(=O)c2c(NCCNCCO)ccc(NCCNCCO)c21 [Mitoxantrone]	10.1	3.8	0		44	0	164	degradation ([1]; lower concentration of calcium hypochlorite (40 g/l), one minute, 1 min): approximately 60%; hypochlorite concentration that may be required for substantially complete deactivation [3]: up to 40 % by weight; bacterial revertant growth ([2]; lower concentration of calcium hypochlorite (40 g/l)): associated with bacterial revertant growth
[Ca+2].[O-]Cl.[O-]Cl [calcium hypochlorite]								HIV / infected cell inactivation ([4]; 4% by weight, 1:1 volumetric ratio, 15 minutes): completely inactivates; viable HIV present ([4]; after four day incubation): no viable HIV varions present; HIV antibody binding ([4]; antibody specific to the 120 kDa viral glycoprotein): no HIV antibody binding is detectable; signs of HIV infection under fluorescent microscope ([4]; fluorescent anti-HIV antibody): no signs of HIV infection; lysis of cells ([4]; non-infected and HIV infected cells, n=4 each): completely lysed; No. colonies of revertant organisms, control without drug ([2]; calcium hypochlorite 40 g/l): 0 colonies; No. colonies of revertant organisms, control without drug ([2]; calcium hypochlorite 423 g/l): 0 colonies
O=S([O-])([O-])=S.[Na+].[Na+] [sodium thiosulfate]								neutralization of residual calcium hypochlorite [5]: should neutralize any residual calcium hypochlorite; neutralization of residual sodium hypochlorite [6]: should neutralize any residual sodium hypochlorite
